ChEMBL document CHEMBL4419163, “Assays for identifying compounds that modulate bitter taste” (2014)

Legend:
Assay type in all cases: functional, cell-based
[1] = target: Taste receptor type 2 member 31 (Homo sapiens, UniProt P59538); assay: Agonist activity at human TAS2R44 expressed in HEK293T cells co-expressing Galpha15 assessed as increase in intracellular calcium level by Calcium-3 dye based fluorescence assay
[2] = target: Taste receptor type 2 member 60 (Homo sapiens, UniProt P59551); assay: Agonist activity at human TAS2R60 expressed in HEK293T cells co-expressing Galpha15 assessed as increase in intracellular calcium level by Calcium-3 dye based fluorescence assay
[3] = target: T1, Taste receptor type 2 member 20 (Homo sapiens) (UniProt P59543); assay: Agonist activity at human TAS2R49 expressed in HEK293T cells co-expressing Galpha15 assessed as increase in intracellular calcium level at 20 mM by Calcium-3 dye based fluorescence assay relative to control
T1 sequence (whole entry): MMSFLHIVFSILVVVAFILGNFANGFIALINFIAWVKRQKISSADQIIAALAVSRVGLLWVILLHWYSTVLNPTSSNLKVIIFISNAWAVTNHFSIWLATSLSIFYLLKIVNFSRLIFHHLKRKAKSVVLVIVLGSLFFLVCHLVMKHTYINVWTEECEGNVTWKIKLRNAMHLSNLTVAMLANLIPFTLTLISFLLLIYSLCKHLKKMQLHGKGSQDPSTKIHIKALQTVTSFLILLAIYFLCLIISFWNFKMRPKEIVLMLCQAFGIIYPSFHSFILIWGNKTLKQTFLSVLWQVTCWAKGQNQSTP

[4] = target: T2, Taste receptor type 2 member 5 (Homo sapiens) (UniProt Q9NYW4); assay: Agonist activity at human TAS2R5 expressed in HEK293T cells co-expressing Galpha15 assessed as increase in intracellular calcium level at 20 mM by Calcium-3 dye based fluorescence assay relative to control
T2 sequence (whole entry): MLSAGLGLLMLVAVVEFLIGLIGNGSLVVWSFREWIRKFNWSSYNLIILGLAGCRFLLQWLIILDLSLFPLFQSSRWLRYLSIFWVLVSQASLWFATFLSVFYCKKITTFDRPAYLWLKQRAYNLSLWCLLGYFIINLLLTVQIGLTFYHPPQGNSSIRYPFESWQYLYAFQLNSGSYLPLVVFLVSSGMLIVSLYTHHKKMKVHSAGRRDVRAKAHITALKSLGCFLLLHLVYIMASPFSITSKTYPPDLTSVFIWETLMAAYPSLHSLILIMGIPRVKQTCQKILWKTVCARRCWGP

[5] = target: Taste receptor type 2 member 9 (Homo sapiens, UniProt Q9NYW1); assay: Agonist activity at human TAS2R9 expressed in HEK293T cells co-expressing Galpha15 assessed as increase in intracellular calcium level by Calcium-3 dye based fluorescence assay
[6] = target: T3, Taste receptor type 2 member 46 (Homo sapiens) (UniProt P59540); assay: Agonist activity at human TAS2R46 expressed in HEK293T cells co-expressing Galpha15 assessed as increase in intracellular calcium level at 20 mM by Calcium-3 dye based fluorescence assay relative to control
T3 sequence (whole entry): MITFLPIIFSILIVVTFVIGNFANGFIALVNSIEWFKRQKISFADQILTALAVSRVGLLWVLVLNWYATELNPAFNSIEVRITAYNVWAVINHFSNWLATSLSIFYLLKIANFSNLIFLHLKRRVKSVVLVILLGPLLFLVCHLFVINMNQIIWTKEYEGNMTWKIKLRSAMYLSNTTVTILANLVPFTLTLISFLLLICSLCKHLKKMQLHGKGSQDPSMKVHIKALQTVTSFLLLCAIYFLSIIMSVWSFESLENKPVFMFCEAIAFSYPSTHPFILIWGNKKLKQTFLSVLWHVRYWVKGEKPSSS

[7] = target: Taste receptor type 2 member 13 (Homo sapiens, UniProt Q9NYV9); assay: Agonist activity at human TAS2R13 expressed in HEK293T cells co-expressing Galpha15 assessed as increase in intracellular calcium level by Calcium-3 dye based fluorescence assay
[8] = target: Taste receptor type 2 member 4 (Homo sapiens, UniProt Q9NYW5); assay: Agonist activity at human TAS2R4 expressed in HEK293T cells co-expressing Galpha15 assessed as increase in intracellular calcium level by Calcium-3 dye based fluorescence assay
[9] = target: Taste receptor type 2 member 14 (Homo sapiens, UniProt Q9NYV8); assay: Agonist activity at human TAS2R14 expressed in HEK293T cells co-expressing Galpha15 assessed as increase in intracellular calcium level by Calcium-3 dye based fluorescence assay
Chain of Taste receptor type 2 member 14 (Q9NYV8 whole entry): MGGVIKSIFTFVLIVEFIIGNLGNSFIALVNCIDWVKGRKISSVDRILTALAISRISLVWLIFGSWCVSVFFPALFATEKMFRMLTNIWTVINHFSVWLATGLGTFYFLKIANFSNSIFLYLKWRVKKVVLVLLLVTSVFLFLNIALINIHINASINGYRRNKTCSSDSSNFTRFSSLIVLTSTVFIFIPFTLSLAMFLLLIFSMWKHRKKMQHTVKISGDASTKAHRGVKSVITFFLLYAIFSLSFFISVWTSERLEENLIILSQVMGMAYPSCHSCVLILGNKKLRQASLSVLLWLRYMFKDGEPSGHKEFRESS

Chain of Taste receptor type 2 member 31 (P59538 whole entry): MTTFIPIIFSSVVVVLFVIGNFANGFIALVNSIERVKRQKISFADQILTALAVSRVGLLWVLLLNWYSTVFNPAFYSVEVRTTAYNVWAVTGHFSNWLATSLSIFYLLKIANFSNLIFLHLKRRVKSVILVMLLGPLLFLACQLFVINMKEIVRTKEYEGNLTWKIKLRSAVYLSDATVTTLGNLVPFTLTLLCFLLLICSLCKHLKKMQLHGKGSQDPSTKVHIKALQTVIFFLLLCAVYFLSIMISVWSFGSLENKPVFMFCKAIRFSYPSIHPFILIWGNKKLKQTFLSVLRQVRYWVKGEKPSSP
Chain of Taste receptor type 2 member 60 (P59551 whole entry): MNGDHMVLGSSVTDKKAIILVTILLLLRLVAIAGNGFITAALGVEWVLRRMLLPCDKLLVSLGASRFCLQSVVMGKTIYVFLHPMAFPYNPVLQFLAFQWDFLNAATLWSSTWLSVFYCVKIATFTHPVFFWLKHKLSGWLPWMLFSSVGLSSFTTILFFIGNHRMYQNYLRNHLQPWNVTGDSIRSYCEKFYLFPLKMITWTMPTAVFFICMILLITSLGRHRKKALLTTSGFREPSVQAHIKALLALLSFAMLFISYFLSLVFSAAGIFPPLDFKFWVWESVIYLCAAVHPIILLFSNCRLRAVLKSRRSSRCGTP
Chain of Taste receptor type 2 member 13 (Q9NYV9 whole entry): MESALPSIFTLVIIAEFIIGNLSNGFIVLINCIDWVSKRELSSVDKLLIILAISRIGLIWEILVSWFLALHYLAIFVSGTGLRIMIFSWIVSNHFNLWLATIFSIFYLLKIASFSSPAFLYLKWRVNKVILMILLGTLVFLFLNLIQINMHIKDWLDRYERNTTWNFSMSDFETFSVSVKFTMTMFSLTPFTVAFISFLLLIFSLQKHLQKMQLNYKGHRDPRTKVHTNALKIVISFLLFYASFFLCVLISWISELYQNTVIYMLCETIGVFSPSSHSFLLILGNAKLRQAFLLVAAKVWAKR
Chain of Taste receptor type 2 member 4 (Q9NYW5 whole entry): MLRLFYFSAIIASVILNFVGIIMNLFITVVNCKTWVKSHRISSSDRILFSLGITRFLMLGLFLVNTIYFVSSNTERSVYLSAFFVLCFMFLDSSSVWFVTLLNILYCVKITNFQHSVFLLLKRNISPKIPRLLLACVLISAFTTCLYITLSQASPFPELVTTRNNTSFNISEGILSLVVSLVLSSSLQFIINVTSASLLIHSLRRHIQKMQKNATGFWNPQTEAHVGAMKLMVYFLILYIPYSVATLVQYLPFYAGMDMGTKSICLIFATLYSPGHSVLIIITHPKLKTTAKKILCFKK
Chain of Taste receptor type 2 member 9 (Q9NYW1 whole entry): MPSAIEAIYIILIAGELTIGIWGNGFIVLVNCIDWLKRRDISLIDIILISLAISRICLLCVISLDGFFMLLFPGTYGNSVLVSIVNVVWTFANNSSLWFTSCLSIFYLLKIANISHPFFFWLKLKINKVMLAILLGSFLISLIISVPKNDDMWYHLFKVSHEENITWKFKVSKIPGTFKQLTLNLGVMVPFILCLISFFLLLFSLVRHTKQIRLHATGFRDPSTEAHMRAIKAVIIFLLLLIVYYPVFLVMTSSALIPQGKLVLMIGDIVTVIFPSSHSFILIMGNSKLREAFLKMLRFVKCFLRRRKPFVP

EC50 [1] [mM]	EC50 [2] [mM]	Activity [3] [%]	Activity [4] [%]	EC50 [5] [mM]	Activity [6] [%]	EC50 [7] [mM]	EC50 [8] [mM]	EC50 [9] [mM]	Structure (SMILES)
5 to 15	5 to 15	< 40	< 40	5 to 15	< 40	5 to 15	5 to 15	5 to 15	[Cl-].[K+] [POTASSIUM CHLORIDE]
–	–	< 40	< 40	–	> 40	–	–	–	CC(O)C(=O)[O-].[K+] (stereo not given)
–	–	< 40	< 40	–	< 40	–	–	–	CC1=CC(=O)NS(=O)(=O)O1
